Test results reported in patent US20250041434A1, “CEA ASSAY FOR PATIENT SELECTION IN CANCER THERAPY” (SANOFI, priority 2021, published 2025).

Columns and labels:
cancer cells = assay: cytotoxic activity of ADC metabolites; assay type: cell-based; conditions: through binding to tubulin and inhibition of microtubule polymerization
[1] = preliminary experiments on effector activity
[2] = system: relevant experimental model; assay: single administration in relevant experimental model; assay type: in vivo
CEACAM6 = biological target: T1, CEACAM6 (Homo sapiens, UniProt P40199); assay: recognition of other CEACAMs; assay type: binding
T1 sequence (P40199 35-320): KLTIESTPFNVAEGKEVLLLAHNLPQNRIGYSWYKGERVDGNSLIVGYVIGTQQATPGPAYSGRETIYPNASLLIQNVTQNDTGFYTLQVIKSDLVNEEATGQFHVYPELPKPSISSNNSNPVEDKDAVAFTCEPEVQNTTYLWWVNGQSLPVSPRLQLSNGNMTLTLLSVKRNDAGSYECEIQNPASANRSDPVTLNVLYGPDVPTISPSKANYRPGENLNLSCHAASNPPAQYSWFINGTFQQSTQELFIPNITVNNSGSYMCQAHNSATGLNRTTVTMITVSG

CEACAM8 = biological target: T2, CEACAM8 (Homo sapiens, UniProt P31997); assay: recognition of other CEACAMs; assay type: binding
T2 sequence (P31997 35-320): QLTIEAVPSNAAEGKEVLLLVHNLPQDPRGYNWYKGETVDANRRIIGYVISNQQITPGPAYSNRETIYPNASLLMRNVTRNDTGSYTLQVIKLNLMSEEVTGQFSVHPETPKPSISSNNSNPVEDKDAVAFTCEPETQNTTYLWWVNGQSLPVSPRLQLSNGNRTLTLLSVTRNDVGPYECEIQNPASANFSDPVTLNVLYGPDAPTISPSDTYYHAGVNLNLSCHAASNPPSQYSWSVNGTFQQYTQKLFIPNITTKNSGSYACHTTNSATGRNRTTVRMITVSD

CEACAM1 = biological target: T3, CEACAM1 (Homo sapiens, UniProt P13688); assay: recognition of other CEACAMs; assay type: binding
T3 sequence (P13688 35-526): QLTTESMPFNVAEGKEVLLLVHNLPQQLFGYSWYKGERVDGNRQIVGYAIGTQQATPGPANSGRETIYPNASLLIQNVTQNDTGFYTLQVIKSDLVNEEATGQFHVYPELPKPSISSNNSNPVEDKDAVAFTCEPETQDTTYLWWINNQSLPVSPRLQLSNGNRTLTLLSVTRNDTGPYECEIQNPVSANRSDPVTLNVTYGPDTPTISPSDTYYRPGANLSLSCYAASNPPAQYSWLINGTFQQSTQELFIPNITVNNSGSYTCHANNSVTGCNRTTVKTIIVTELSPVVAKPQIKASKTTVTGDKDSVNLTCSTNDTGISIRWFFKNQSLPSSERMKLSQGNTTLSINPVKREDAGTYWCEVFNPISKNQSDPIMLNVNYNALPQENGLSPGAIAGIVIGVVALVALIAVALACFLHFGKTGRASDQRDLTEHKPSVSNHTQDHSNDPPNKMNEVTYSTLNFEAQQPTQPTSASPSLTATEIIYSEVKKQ

[3] = Phase 1/2 study adverse drug reactions; assay type: in vivo, human; conditions: heavily pre-treated high CEACAM5 expressers for NSCLC
Procedure: The ADC was analyzed in a Phase 1/2 study in heavily pre-treated high CEACAM5 expressers for NSCLC.

[4] = system: human primary colon and stomach tumors; conditions: mice bearing human primary colon and stomach tumors; see WO 2014/079886; cited from earlier work
cells expressing CEACAM5 = conditions: see WO 2014/079886; cited from earlier work
[5] = TED13751 Main dose escalation, maximum tolerated dose; assay type: in vivo, human; conditions: q2w, IV infusion
Text: The dose escalation decision will be based on the dose limiting toxicities (DLTs) observed during Cycle 1+Cycle 2 in q2w cycle and during Cycle 1 in q3w cycle, whether related or not to the investigational medicinal product (IMP) in the absence of clear evidence to the contrary after validation by the Study Committee, and if not related to the progression of disease. Before escalating the tusamitamab ravtansine dose to the next level, the safety data, and especially DLTs, ocular and cardiac adverse events (AEs) will be reviewed by the Study Committee. Cumulative toxicities observed on subsequent administrations will also be considered for the dose escalation process and the dose selection decision. […]
For the accelerated dose escalation phase, as well as for the Bayesian EWOC, a minimum of […] duration (˜4 weeks) will be mandatory between the last patient who has received Day 1 of Cycle 1 at DL n, and the first patient who will receive Day 1 of Cycle 1 at DL n+1. The dose determined to be the maximum tolerated dose (MTD) will be tested further in the Expansion cohorts.
The first loading dose tested will be 120 mg/m^2; if this first dose is safe, then dose escalation will proceed to test next 135 mg/m^2, and 150 mg/m^2. […] The determined MTD or safe MAD will be used for CRC-L cohort.

[6] = system: patient-derived CRC xenograft expressing CEACAM5; assay: circulating CEA in mice engrafted orthotopically with patient-derived CRC xenograft; assay type: in vivo; conditions: single active dose; rise in circulating CEA occurring with tumor growth
Text: However, specificities linked to the CEACAM5 target would potentially allow a more accurate follow-up of treatment impact on tumor growth by the monitoring CEA levels in the blood. Indeed, measurement of circulating CEA levels is of some use for CRC treatment monitoring. […] Similarly, modulation of circulating CEA may be a useful PDy marker of response to tusamitamab ravtansine. […] The usefulness of monitoring circulating CEA will be explored in this clinical study.

[7] = system: NSQ NSCLC with high CEACAM5 expression; assay: TED13751 clinical study, tumor response (RECIST 1.1) in NSQ NSCLC high CEACAM5 expressers; assay type: in vivo, human; conditions: for anti-tumor activity, in words: participants heavily pre-treated for NSQ NSCLC, study TED13751
Procedure: In this cohort of NSQ NSCLC participants with high CEACAM5 expression on tumor (≥2+ in intensity in ≥50%) expansion cohort NSQ NSCLC, 10 out of 13 responding participants had high baseline circulating CEA (≥100 ng/mL).
Expression of CEACAM5 on tumor was assessed using CEACAM5 IHC test and circulating CEA and CEACAM5 assays for patients enrolled in clinical trial TED13751 (NCT02187848).
Circulating CEA was determined locally using the assay which was of routine use in the institution. In vitro diagnostic CEA assays measure CEA not claiming specificity for CEACAM5.
The study will be divided in […] parts: The Escalation Phase and the Expansion Phase.
The expansion phase will be conducted with every 2 weekly dosing schedule. During the Expansion Phase, the population to be treated will be restricted to patients with advanced diseases in colorectal cancer (CRC), NSQ NSCLC, small cell lung cancer (SCLC), and gastric adenocarcinoma (including signet-ring cell carcinoma subtype as well as esophago-gastric junction (EGJ) adenocarcinomas of the Siewert Types II and III). CEACAM5 expression of ≥2+ in intensity involving ≥50% of the tumor cell population will be documented during pre-screening on the most recent archival tissue sample and using local IHC evaluation for patients potentially eligible for study treatment in the gastric adenocarcinoma cohort. There are 2 independent NSQ NSCLC expansion phase cohorts: The first one (Lung cohort) includes patients with high CEACAM5 expression (≥2+ in intensity involving at least 50% of the tumor cell population). The second cohort (Lung bis cohort) will include patients that pre-screened positive at moderate intensity (≥2+ between ≥1% to <50% of the tumor cell population). The SCLC cohort includes patients with CEACAM5 expression of ≥2+ in intensity involving ≥1% of the tumor cell population. […] Full screening will only be done for archival cases meeting the above definition. No CEACAM5 pre-screening is required for CRC patients potentially eligible for the CRC expansion cohort. The level of CEACAM5 expression will be documented essentially retrospectively and centrally on both archival and fresh (baseline sample) tumor tissues. Confirmation of CEACAM5 tumor expression will be done retrospectively in a central laboratory on fresh tumor tissue collected at baseline (mandatory biopsy in the Expansion Phase only, on all patients with CRC and gastric cancer, and on NSQ NSCLC as well as SCLC patients with a lesion amenable to biopsy). If sufficient archived tumor material is available, a central evaluation will also be done retrospectively to gain knowledge on the variability in evaluation of the expression. The results of the retrospective analyses will have no impact on patients' treatment. It will be used for the better interpretation of the overall response, and as the baseline for comparison with CEACAM5 expression upon progression (exploration for loss of CEACAM5 as mechanism of acquired resistance).
In the Expansion cohorts, the assessment of response to tusamitamab ravtansine is a primary objective. All patients treated in the Expansion Phase must have at least one measurable lesion for inclusion. Tumor assessment will be made at least every 4 cycles. Decision to pursue treatment will be based on the response evaluation made by the Investigator, however, measures of lesions will be collected in the electronic case report forms for a determination of response by Sponsor. A partial or complete response must be confirmed on a second examination done at least 4 weeks apart, in order to be documented as a confirmed response to therapy.
The RECIST v1.1 criteria will be followed for assessment of tumor response.

[8] = biological target: T4, A3B3 domain of human CEACAM5 (Homo sapiens, UniProt P06731); assay: domain specificity of binding
T4 sequence (P06731 499-685 limits assumed): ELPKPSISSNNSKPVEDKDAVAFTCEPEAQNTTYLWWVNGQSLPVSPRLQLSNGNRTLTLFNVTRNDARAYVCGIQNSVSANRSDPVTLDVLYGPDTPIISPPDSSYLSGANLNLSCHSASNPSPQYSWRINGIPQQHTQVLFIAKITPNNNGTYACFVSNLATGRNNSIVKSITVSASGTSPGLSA

tumor cells = conditions: see WO 2014/079886; cited from earlier work
CEACAM7 = biological target: T5, CEACAM7 (Homo sapiens, UniProt Q14002); assay: recognition of other CEACAMs; assay type: binding
T5 sequence (Q14002 36-242): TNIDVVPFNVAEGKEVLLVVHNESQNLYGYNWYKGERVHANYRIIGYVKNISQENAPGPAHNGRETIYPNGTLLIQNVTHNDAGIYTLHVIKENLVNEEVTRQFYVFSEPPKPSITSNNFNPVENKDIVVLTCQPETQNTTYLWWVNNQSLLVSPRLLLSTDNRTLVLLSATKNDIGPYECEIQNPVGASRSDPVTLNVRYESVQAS

[9] = Phase 1/2 study, heavily pre-treated high CEACAM5 expressers for NSCLC

In the case of `COc1cc2cc(c1Cl)N(C)C(=O)CC(OC(=O)C(C)N(C)C(=O)CCC(C)(C)S)C1(C)OC1C(C)C1CC(O)(NC(=O)O1)C(OC)/C=C/C=C(\C)C2` (stereo not shown) [DM4, N2′-deacetyl-N-2′(4-methyl-4-mercapto-1-oxopentyl)-maytansine], the cytotoxic activity (cancer cells) is reported as “potent cytotoxic activity”.
For `COc1cc2cc(c1Cl)N(C)C(=O)CC(OC(=O)C(C)N(C)C(=O)CCC(C)(C)SC)C1(C)OC1C(C)C1CC(O)(NC(=O)O1)C(OC)C=CC=C(C)C2` (stereo not shown) [Me-DM4], the cytotoxic activity (cancer cells) was “potent cytotoxic activity”.
With “Tusamitamab ravtansine: immunoconjugate ADC combining humanized anti-CEACAM5 antibody tusamitamab and maytansinoid DM4 via SPDB linker; CAS Registry No. 2254086-60-5” the effector activity [1] was “devoid of effector activity”, the tumor regressions [2] was “induces regressions” and the “recognition of CEACAM6” value (CEACAM6) was “does not recognize”. The “recognition of CEACAM8” value (CEACAM8) was “does not recognize”, the “recognition of CEACAM1” value (CEACAM1) was “does not recognize” and the hematological/nerve toxicity [3] was “minimal”. The “most common Adverse Drug Reactions (ADRs)” value ([3]; reversible without treatment discontinuation) was “ocular toxicity”, the “tumor growth inhibition in vivo” value [4] was “markedly inhibit tumor growth” and the “internalization into cells expressing CEACAM5 after binding” value (cells expressing CEACAM5) was “capable of being internalized”. The “maximum tolerated dose (MTD)” value [5] was 100 mg/m^2, the “circulating CEA” value [6] was “prevented a rise in circulating CEA” and the “participants who had PR” value ([7]; 100 mg/m^2 Q2W, 64 participants, RECIST 1.1) was 13. For the same compound, the overall response rate ([7]; 100 mg/m^2 Q2W, 64 participants, RECIST 1.1, 95% CI: 12.27% to 31.71%) was 20.3%, the “Duration of Response (DoR), in words” value [7, 9] was “competitive” and the “Overall Response Rate (ORR), in words” value [7, 9] was “competitive”. For the same compound, the “Responses (%)” value ([7]; baseline circulating CEA <5 μg/L (9 patients), 100 mg/m^2 Q2W) was 22.2%, the “Responses (%)” value ([7]; baseline circulating CEA <100 μg/L (37 patients), 100 mg/m^2 Q2W) was 8.1% and the “Responses (%)” value ([7]; baseline circulating CEA >3 μg/L (58 patients), 100 mg/m^2 Q2W) was 22.4%. The “Responses (%)” value ([7]; baseline circulating CEA ≥5 μg/L (53 patients), 100 mg/m^2 Q2W) was 20.8%, the “Responses (%)” value ([7]; baseline circulating CEA ≥100 μg/L (25 patients), 100 mg/m^2 Q2W) was 40.0% and the “share of the 13 responders with baseline circulating CEA level ≥100 μg/L” value ([7]; high expressers cohort, 100 mg/m^2 Q2W) was 77%. The “anti-tumor activity, in words” value [7] was “encouraging anti-tumor activity”, the “anti-tumor activity, in words” value ([7]; listed as tusamitamab ravtansine) was “Encouraging preliminary anti-tumor activity” and the “binding to A3B3 domain of human CEACAM5” value [8] was “specifically binds”. The “cytotoxic activity on tumor cells in vitro” value (tumor cells) was “induce cytotoxic activity” and the “recognition of CEACAM7” value (CEACAM7) was “does not recognize”.
